Measurements: US8630703B2, “Treatment utilizing hydrophobic weak bases chemotherapeutic agents and illumination” (Technion Research & Development Foundation Limited, priority 2011, dated 2014)
Blank lines part the entries; values can stand above or below the compound they belong to.

Experiments:
A549/K1.5 cells [1] = assay: Live cell fluorescent imaging (lysosomal localization and photodestruction); type: cell-based, Human; conditions: for effect on lysosomal accumulation of C-1330: pre-incubation 10 mM ammonium chloride 30 min or 1 μM bafilomycin A1 60 min
Experimental: (§1) Lysosomes and mitochondria were stained by incubating the cells 100 nM LysoTracker® Red or 100 nM MitoTracker® Red, respectively, for 1 hour. For subcellular localization of C-1330, cells were also stained with 10 μM C-1330 for 30 minutes.
(§2) Nuclear staining was performed prior to fluorescence imaging by replacing the growth medium with medium containing 2 μg/ml Hoechst 33342, followed by incubation for 10 minutes. Prior to nuclear staining, A549/K1.5 cells were incubated for 1 hour with 10 μM fumitremorgin C (FTC) to prevent efflux of Hoechst 33342 by ABCG2.
(§3) Live cell fluorescent imaging was performed using an Axiovert 200 inverted fluorescence microscope (Carl Zeiss) equipped with a digital camera. […] Light intensity was maintained at 12.5% of the maximum. The magnification used was ×630.
(§4) Cells were pre-incubated with 10 mM ammonium chloride for 30 minutes or with 1 μM bafilomycin A1 for 60 minutes, prior to being incubated with 10 μM C-1330 for 30 minutes as described hereinabove. Ammonium chloride and bafilomycin A1 remained present during the incubation with C-1330.
A549/K1.5 cells were incubated with 10 μM doxorubicin for 30 minutes, and then observed and illuminated (at 470 nm) by live cell fluorescent imaging as described in the Materials and Methods section. Upon illumination, the cells were photographed every second, in order to observe changes in the cells over time.

[2] = Absorption, emission and excitation spectra; type: physicochemical; conditions: aqueous 0.9% NaCl
Experimental: Stock solutions containing sunitinib or the imidazoacridinones (IAs) C-1375 and C-1379 in 100% dimethyl sulfoxide were diluted with aqueous 0.9% NaCl solution under continuous stirring. Absorption spectra were recorded with a two-beam Cary 500 UV-VIS-NIR spectrophotometer (Varian) in 1 cm long Suprasil® quartz cuvettes (Hellma), at an average scan speed of 600 nm/minute, at 20° C. The steady state emission and excitation spectra were recorded with an LS 50B luminescence spectrometer (Perkin-Elmer).

[3] = test system: Human A2780 ovarian carcinoma tumors; assay: PDT of tumors transplanted onto CAM; type: in vivo; conditions: 12 μg per embryo i.v., 420 nm 34 J/cm^2, two rounds; vs C-1379 without illumination
Experimental: Human A2780 ovarian carcinoma cells were used to establish tumor xenografts in the CAM. Tumor spheroids were grown by a hanging drop technique, resulting in spheroids with a predefined size. A2780 cells were suspended in medium containing 20% Methocel™ (Sigma-Aldrich, St. Louis, USA), and 50 μl drops (1×10^6 cells/drop) were dispensed on the internal part of the lid of a Petri dish. After 24 hours, spheroids were harvested and placed on the CAM at embryonic development day (EDD) 7. Two transplanted human A2780 ovarian carcinoma tumor spheroids, containing 10^6 cells, were grown on a single CAM, and 300 μM C-1379 was injected intravenously at a concentration of 12 μg per embryo at EDD 11.
Prior to further treatment, both tumors were imaged by imidazoacridinone (C-1379) fluorescence angiography, as described hereinabove. One minute after C-1379 administration, one of the tumors was illuminated at a wavelength of 420 nm (34 J/cm^2, 70 mW/cm^2). 24 hours later, both tumors were visualized by FITC-dextran angiography, as described hereinabove, and by standard photography. Immediately thereafter, a second round of C-1379 intravenous administration and PDT (on one of the tumors) was performed as previously. The CAM was then incubated for two more days. […]

[4] = test system: chicken chorioallantoic membrane (CAM) vasculature; assay: Chorioallantoic membrane (CAM) model of photodynamic therapy; type: in vivo; conditions: for vascular effect in illuminated area: 420 nm
Experimental: Fertilized chicken eggs (Animalco AG) were labeled and transferred into a hatching incubator with a relative air humidity of 65% and a temperature of 37° C. The incubator was equipped with an automatic fan (Savimat). On embryonic development day (EDD) 3, a hole of approximately 3 mm in diameter was opened in the eggshell above the air pouch of the egg and covered with Parafilm® wrapping film (Pechiney) to prevent dehydration and possible infections. The eggs were then returned to the incubator in a static position until use. On EDD 11, the hole in the shell was extended to a diameter of approximately 3 cm in order to provide better access to the chorioallantoic membrane (CAM) during experiments.
Eggs were placed under an Eclipse 600 FN epi-fluorescence microscope equipped with a Plan Apo 4/0.2, working distance 20 objective (Nikon). Microscopic observation and illumination of a region of the CAM was performed as described previously [Lim et al., Photochem Photobiol 2010, 86:397-402; Lim et al., J Med Chem 2010, 53:2865-2874; Nowak-Sliwinska et al., Angiogenesis 2010, 13:281-292]. Illumination was provided by a 100 W high pressure Hg-arc lamp. Light doses were adjusted with neutral density filters and measured with a calibrated Field-Master GS power meter (Coherent Inc.). Fluorescence images were acquired with an F-view II 12-bit monochrome Peltier-cooled digital CCD camera driven with analySIS DOCU software (Soft Imaging System GmbH).
For excitation and detection of imidazoacridinones (IAs) or sunitinib, the microscope was equipped with a filter set (Nikon) characterized by excitation wavelengths of 420±20 nm and emission wavelengths of >470 nm,
After the treatment the eggs were numbered, covered and returned to the incubator. Each treatment group included 5 eggs.
Chorioallantoic membranes (CAMs) were intravenously injecting chorioallantoic membranes with 20 μl of a solution of FITC-dextran (20 kDa, 25 mg/ml). Fluorescence angiography was then performed using light from an Hg-arc lamp and light filters (Nikon) which provided excitation wavelengths of 470±20 nm and emission wavelengths of >520 nm for observing the fluorescence. In order to increase the quality of the recorded angiographs, a light absorber, in the form of India ink, was injected (30 μl) into the extra-embryonic cavity. The purpose of this second injection was to decrease the influence of the CAM auto-fluorescence background, which changes rapidly with time due to the embryo's movement. The India ink was filtered shortly before injection, using a sterile cellulose acetate membrane with 0.2 μm pores (Renner GmbH).
Photodynamic therapy (PDT) was performed at embryo development day (EDD) 11, at which stage the CAM is fully developed and contains a vessel network with a regular capillary plexus. The imidazoacridinones were intravenously injected into the main vessel of the CAM through a 33-gauge needle fitted to a 100 μl syringe (Hamilton), at a concentration of 1 mg/ml and a volume of 100 μl, which corresponds to a dose of 100 μg, or approximately 10 mg/kg embryo body weight.
One minute after injection, a region of the CAM which contained vessels of diameters in a range of 5 to 70 μm was illuminated (420±20 nm) at a light dose of 20 J/cm^2 and an irradiance of […]. […]
The illuminated area was 0.02 cm^2, as delimited by an optical diaphragm. The fluorescence of sunitinib was visible in the vasculature of the CAMs prior to PDT.

A549/K1.5 cells [5] = assay: XTT cytotoxicity assay with and without illumination; type: cell-based, Human; conditions: A549/K1.5
Experimental: Human non-small cell lung cancer A549 cells and their ABCG2-overexpressing MDR (multi-drug resistant) A549/K1.5 sub-line; ovarian carcinoma cell line 2008 and its stable MRP1-transfectant 2008/MRP1; and human non-small lung cancer cell line SW1573 and its ABCB1-overexpressing subline SW1573/2R160) were maintained in RPMI-1640 medium supplemented with 10% fetal bovine serum, 2 mM glutamine, 100 μg/ml penicillin and streptomycin (Biological Industries, Beth-Haemek, Israel) in a humid atmosphere containing 5% CO2 at 37° C.
(§5) Parental cells and their MDR (multi-drug resistant) sub-lines were seeded in 96-well plates (2×10^4 cells/well in 90 μl growth medium/well). […] Following incubation for 2 hours, the drug-containing medium was replaced by drug-free medium. The cells were then placed on an illuminator plate (Model 460, thin line series, S&S X-Ray Products Inc., Brooklyn, N.Y.) for 1 hour, thereby achieving a light dose of 5 J/cm^2 white light. After illumination, plates were further incubated for an additional 24 hours.
Cell viability was determined using an XTT (2,3-bis-(2-methoxy-4-nitro-5-sulfophenyl)-2H-tetrazolium-5-carboxanilide) Cell Proliferation Kit (Biological Industries). The drug concentrations required to inhibit cell growth by 50% (i.e., IC50 values) were determined from the cell survival curves in the absence and in the presence of illumination. Results are presented as mean values of at least three independent experiments.

A549 cells [6] = assay: as above
Experimental: as §5
Cell viability was determined using an XTT (2,3-bis-(2-methoxy-4-nitro-5-sulfophenyl)-2H-tetrazolium-5-carboxanilide) Cell Proliferation Kit (Biological Industries). […] Results are presented as mean values of at least three independent experiments.

A549 cells [7] = assay: Live cell fluorescent imaging (lysosomal localization and photodestruction); type: cell-based, Human; conditions: pre-incubation 10 mM ammonium chloride 30 min or 1 μM bafilomycin A1 60 min
Experimental: as §1, §2, §3, §4
Monolayers of A549 cells were grown in glass-bottom plates and were washed in growth medium. The medium was then replaced with a special isotonic balanced salt solution lacking or containing either N,N′-dimethylthiourea (DMTU), a potent hydroxyl radical and hydrogen peroxide scavenger, L-histidine, a hydroxyl radical and singlet oxygen radical (^1O2) scavenger, or sodium azide, a singlet oxygen radical scavenger. The salt solution consisted of 10 mM HEPES pH 7.4, 120 mM NaCl, 5 mM KCl, 1 mM CaCl2, 1 mM MgCl2, and 25 mM glucose. After incubation for 1 hour, C-1330 was added to the aforementioned solution buffer for an additional 30 minutes, during which the scavengers remained present, in order to load lysosomes. The cells were then examined by fluorescent imaging as described hereinabove.

A549 cells [8] = assay: Lysosome quantification by LysoTracker Red fluorescence; type: cell-based, Human; conditions: for increase in lysosomal fluorescence compared to untreated cells: 20 μM
Experimental: A549 cells were seeded in 96-well plates at a concentration of 500 cells/well for the 48 hour chloroquine treatment, or at a concentration of 1000 cells/well for the 24 hour chloroquine treatment, in a total volume of 100 μl of medium per well. Following an overnight incubation, chloroquine was then added at the indicated concentrations for 24 or 48 hours. Lysosomes were then stained with LysoTracker® Red, detected by fluorescent imaging as described hereinabove, and quantified using EZQuant software.

Compound: CCN(CC)CCNc1ccc2ncn3c4ccc(O)cc4c(=O)c1c23 [C-1311]
lysosomal photodestruction on co-treatment with ABCG2 inhibitor (A549/K1.5 cells [1]; MDR cells, 20 μM C-1311 + 10 μM fumitremorgin C, 2 hours, illumination): intense lysosomal photodestruction

Compound: CCN(CC)CCCNc1ccc2nc(C)n3c4ccc(OC)cc4c(=O)c1c23 [C-1379]
Peak absorption [2]: 443 nm | Peak emission [2]: 554 nm | Peak excitation [2]: 447 nm | effect on tumor growth [3]: inhibition of tumor growth | effect on tumor vasculature [3]: vaso-occlusion and destruction of tumor vasculature | vascular effect in illuminated area ([4]; 1 μg/embryo i.v., 20 J/cm^2, 24 hours after illumination): massive occlusion of the capillary network | vascular effect in illuminated area ([4]; 100 μg/embryo i.v., 20 J/cm^2, 1 minute after injection, 24 hours after treatment): vaso-occlusion within the illuminated area | Fold sensitization (A549/K1.5 cells [5]; control vs illumination): 20 | LD50 Control (A549/K1.5 cells [5]; no illumination): 15.192 ± 0.58 µM | Survival at 3000 nM Control (A549/K1.5 cells [5]; no illumination): 82 ± 4% | LD50 Illumination (A549/K1.5 cells [5]; white light 1 hour (5 J/cm^2)): 747 ± 45 nM | Survival at 3000 nM Illumination (A549/K1.5 cells [5]; white light illumination): 7 ± 0.1% | Fold sensitization (A549 cells [6]; control vs illumination): 32 | Survival at 3000 nM Control (A549 cells [6]; no illumination): 60 ± 1% | LD50 Control (A549 cells [6]; no illumination, 2 h drug, XTT 24 h later): 6.349 ± 0.867 µM | LD50 Illumination (A549 cells [6]; white light 1 hour (5 J/cm^2)): 199 ± 31 nM | Survival at 3000 nM Illumination (A549 cells [6]; white light illumination): 2 ± 0.3%

Compound: Cl.N [ammonium chloride]
effect on lysosomal accumulation of C-1330 (A549/K1.5 cells [1]; A549/K1.5): completely abolished | effect on lysosomal accumulation of C-1330 (A549 cells [7]): completely abolished

Compound: CO/C1=C\C(C)=C\[C@@H](C)[C@@H](O)[C@@H](C)C/C(C)=C/C=C/[C@H](OC)[C@@H]([C@@H](C)[C@@H](O)[C@H](C)[C@@]2(O)C[C@@H](O)[C@H](C)[C@@H](C(C)C)O2)OC1=O [bafilomycin A1]
effect on lysosomal accumulation of C-1330 (A549/K1.5 cells [1]; A549/K1.5): completely abolished | effect on lysosomal accumulation of C-1330 (A549 cells [7]): completely abolished

Compound: CCN(CC)CCCC(C)Nc1ccnc2cc(Cl)ccc12 (stereo not shown) [chloroquine]
increase in lysosomal fluorescence compared to untreated cells (A549 cells [8]; 24 hours): 8.4 fold | increase in lysosomal fluorescence compared to untreated cells (A549 cells [8]; 48 hours): 21.7 fold | increase in the lysosomes, dose relation (A549 cells [8]; 20, 50 or 100 μM, 24 hours): dose-dependent

Compound: COc1cccc2c1C(=O)c1c(O)c3c(c(O)c1C2=O)C[C@@](O)(C(=O)CO)C[C@@H]3O[C@H]1C[C@H](N)[C@H](O)[C@H](C)O1 [doxorubicin]
lysosomal photodestruction upon illumination (A549/K1.5 cells [1]; A549/K1.5, 10 μM, 470 nm, 20 seconds of illumination): nearly all of the lysosomes had ruptured

location of drug fluorescence in CAM ([4]; administered intravenously): visible within the vasculature
Compound: CCN(CC)CCNC(=O)c1c(C)[nH]c(/C=C2\C(=O)Nc3ccc(F)cc32)c1C [sunitinib, reference compound]
location of drug fluorescence in CAM ([4]; administered topically): visible exclusively outside the vasculature
